From PMC8391236, “Effect of Pterostilbene, a Natural Derivative of Resveratrol, in the Treatment of Colorectal Cancer through Top1/Tdp1-Mediated DNA Repair Pathway” (Cancers, 2021)

Columns and labels:
Tdp1-over CL187 cells = test: Cell viability of Tdp1-overexpressing cells; type: cell-based, Human; details: Tdp1-over CL187; CPT 0.5 μM, FM 25 μM
Protocol: CL187 cells were cultured on 6-cm dishes at 37 °C for 24 h. The plasmid (2.5 μg) was diluted with 125 μL serum-free medium Opti-MEM, mixed gently, and incubated at room temperature for 5 min. Lipo 3000 (Invitrogen, Waltham, MA, USA) were diluted with 125 μL serum-free medium Opti-MEM, mixed and incubated for 5 min. Mixed the plasmid and Lipo 3000, incubated at room temperature for 20 min, the mixture was added to CL187 cells, the Tdp1 overexpressed plasmid were transfected into CL187 cells.
PTE or RE were dissolved in DMSO and diluted with culture medium to 1–100 μM. The final concentration of DMSO was less than 0.1%, and 0.1% DMSO as negative control. CPT, as Top1 inhibitor, was diluted to 0.5 μM [36, 37], and FM, as Tdp1 inhibitor was diluted to 25 μM [38]. Exponentially growing cells were seeded in 96-well plates (5 × 10^3 cells/well) for 12 h. […] Cell viability was determined by CCK-8 (Beyotime Biotechnology, Shanghai, China) assay. Cell viability and inhibition rate were calculated with the following formulae:Cell viability (%) = [OD450 (sample)/OD450 (control)] × 100(1) Inhibition rate (%) = […] − cell viability (%)(2)
The drug concentration required for inhibiting cell proliferation by 50% (IC50) was determined by interpolation from dose-response curves.

siRNA-Tdp1 CL187 cells = test: Cell viability of Tdp1-silenced cells; type: cell-based, Human; details: siRNA-Tdp1 CL187, CPT 0.5 μM; for sensitivity / efficacy of positive controls: FM 25 μM
Protocol: (§1) PTE or RE were dissolved in DMSO and diluted with culture medium to 1–100 μM. The final concentration of DMSO was less than 0.1%, and 0.1% DMSO as negative control. […] Exponentially growing cells were seeded in 96-well plates (5 × 10^3 cells/well) for 12 h. Various drugs were added separately and incubated for 24, 48, and 72 h. Cell viability was determined by CCK-8 (Beyotime Biotechnology, Shanghai, China) assay.

siRNA-Top1 CL187 cells = test: Cell viability of Top1-silenced cells; type: cell-based, Human; details: siRNA-Top1 CL187; CPT 0.5 μM, FM 25 μM
Protocol: as §1

Top1 in CL187 cells [1] = target: Top1 in CL187 cells (Homo sapiens, UniProt P11387); test: Intracellular Top1 enzyme activity assay; type: cell-based; design: endogenous in cells; host or cells: CL187 cells (nuclear, mitochondrial and cytoplasmic extracts); details: CL187 cells treated 6 h; CPT at 50 μM
Protocol: (§2) CL187 cells were treated with different concentrations of drugs for 6 h. The supernatant was discarded, and the cells were collected. The extracts of cytoplasm, mitochondria, and nucleus were obtained by the same method as described in Section 2.4.7. The protein concentration of each extract was detected by BCA kit. Enzyme activity reaction was carried out by using 125 ng super helical DNA (pHOT-1) and cell extract. The protein concentration of the extract was guaranteed to be the same in each group. The mixture solution of the pHOT-1 and the cell extract was added into the reaction buffer and incubated for 30 min at 37 °C. The reaction was terminated with loading buffer. The agarose gel electrophoresis was performed, and the images were collected.

Top1 = target: T1, Top1 (Homo sapiens, UniProt P11387); test: Direct Top1 enzyme activity (DNA relaxation) assay; type: biochemical; details: gel electrophoresis
T1 construct: purchased TopoGEN, Buena Vista, CO, USA
T1 sequence (P11387 1-765): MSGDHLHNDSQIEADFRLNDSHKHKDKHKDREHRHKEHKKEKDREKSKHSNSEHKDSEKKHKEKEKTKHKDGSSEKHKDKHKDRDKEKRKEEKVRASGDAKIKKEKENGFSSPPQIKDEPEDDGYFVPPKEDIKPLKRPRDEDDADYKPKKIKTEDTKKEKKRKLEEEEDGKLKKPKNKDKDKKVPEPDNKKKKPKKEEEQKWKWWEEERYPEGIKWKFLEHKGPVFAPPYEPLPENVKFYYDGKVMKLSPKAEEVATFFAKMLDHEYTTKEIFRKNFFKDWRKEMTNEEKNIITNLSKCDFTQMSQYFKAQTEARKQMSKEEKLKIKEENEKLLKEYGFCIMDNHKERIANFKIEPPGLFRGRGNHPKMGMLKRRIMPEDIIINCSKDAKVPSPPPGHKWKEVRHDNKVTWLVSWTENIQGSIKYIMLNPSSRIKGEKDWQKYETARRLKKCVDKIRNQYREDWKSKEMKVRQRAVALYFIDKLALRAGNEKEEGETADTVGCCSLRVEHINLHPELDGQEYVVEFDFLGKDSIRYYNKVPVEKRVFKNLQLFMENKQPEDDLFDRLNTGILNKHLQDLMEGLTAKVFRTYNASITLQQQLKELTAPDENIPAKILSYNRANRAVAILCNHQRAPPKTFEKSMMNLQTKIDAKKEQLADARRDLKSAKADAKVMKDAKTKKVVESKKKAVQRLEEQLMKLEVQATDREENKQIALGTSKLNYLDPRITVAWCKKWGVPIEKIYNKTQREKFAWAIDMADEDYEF
Protocol: Different concentrations of the drug solution were prepared. The solvent was used as negative control group, and CPT (50 μM) was used as the positive control group. Each sample included 2 units of Top1 (TopoGEN, Buena Vista, CO, USA) and 250 ng super helical DNA (pHOT-1, TopoGEN, Buena Vista, CO, USA). The samples were incubated for 30 min at 37 °C, and then the reaction was stopped with SDS. After digestion with proteinase K (50 μg/mL, 60 min at 37 °C), samples were separated through electrophoresis (1% agarose gel). The electrophoresis was conducted at 180 V constant pressure for 20 min. The gel was immersed in the dye without EB for 30 min, and the images were collected by gel imaging system (Tanon-1600B, Shanghai, China).

Top1 in CL187 cells [2] = test: Intracellular Top1 enzyme activity assay; type: cell-based, Human; details: CL187 cells treated 6 h
Protocol: as §2

[3] = system: liver, kidney, lung, and paracancerous colon tissues; test: HE staining of organs of orthotopic xenograft mice; type: in vivo; details: orthotopic xenograft nude mice
Protocol: (§3) The mice were anaesthetized with 10% chloral hydrate and fixed on the operating table. After the abdomen of the mice was disinfected with iodine, a small section of the large intestine was squeezed out of the surgical opening. The 0.1 mL (per mouse) CL187 cell suspension (1 × 10^7 /mL) was inoculated into the colon wall of nude mice. After the inoculation, the large intestine was placed into the mouse abdominal cavity. After the wound was sutured, the mice were put into cages until they naturally woke up. After 10 days of inoculation, the animals were randomly divided into 4 groups (6 mice per group). Vector control group was intraperitoneally injected with 5% DMSO and 95% saline containing 30% HP-β-CD (i.p.). The drug dosage was designed according to the results of the previous pharmacokinetic experiment. Experimental Group 1 was intraperitoneal injected (i.p.) with PTE 100 mg/kg, and experiment Group 2 was intragastric administrated (i.g.) with PTE 500 mg/kg, once a day. The bioavailability of PTE was the same in the animals in the above regimens. Positive control group was injected with irinotecan, 20 mg/kg, twice a week. During the experiment, the changes of body weight of nude mice were recorded. After 21 days, the nude mice were sacrificed, the tumor blocks were removed surgically, weighed, and recorded. Tumor and organ tissues were paraffin-embedded and sectioned into 4 mm after being fixed in 4% of paraformaldehyde solution for 24 h. The sections were deparaffinized and rehydrated before detection. For histological observation, tumor sections were stained with hematoxylin and eosin (HE), and then observed by an inverted microscopy (Olympus, Japan).

[4] = system: orthotopic CL187 xenograft; test: Orthotopic CL187 xenograft model; type: in vivo, BABLc/nude mice
Protocol: as §3, with “recorded.” for “recorded. Tumor and organ tissues were paraffin-embedded and sectioned into 4 mm after being fixed in 4% of paraformaldehyde solution for 24 h. The sections were deparaffinized and rehydrated before detection. For histological observation, tumor sections were stained with hematoxylin and eosin (HE), and then observed by an inverted microscopy (Olympus, Japan).”
Tumor and organ tissues were paraffin-embedded and sectioned into […] after being fixed in 4% of paraformaldehyde solution for 24 h. The sections were deparaffinized and rehydrated before detection. For histological observation, tumor sections were stained with hematoxylin and eosin (HE), and then observed by an inverted microscopy (Olympus, Japan).
For immunohistochemistry analysis, the sections were treated with 3% hydrogen peroxide for 10 min to block endogenous peroxidase, and then incubated with Ki67 primary antibody for overnight at 4 °C. Subsequently, the sections were treated with secondary antibody at room temperature for 20 min. After being washed with PBS, the sections were incubated with DAB chromogenic solution for 10 min, followed by rewashing in PBS. The sections were counterstained with hematoxylin after DAB coloration. The antibody specificity was confirmed by negative control without primary antibody treatment. Immunopositive areas were observed by an inverted microscope (Olympus, Japan).

[5] = system: subcutaneous CL187 xenograft; test: Subcutaneous CL187 xenograft model; type: in vivo, BABLc/nude mice
Protocol: CL187 cell suspension was collected at 1 × 10^6 /mL, and 0.1 mL cell was inoculated into the right inguinal region of nude mice. The tumor was no metastasis. The diameter of the transplanted tumor in nude mice was measured with a vernier caliper. After 16-day inoculation (the tumor grew to 90 mm^3), the animals were randomly divided into 7 groups (6 mice per group). The drug was administered by intraperitoneal injection. Blank control group was injected with saline. […] According to the preliminary test results. […] Positive control group was injected with irinotecan (20 mg/kg) twice a week, During the experiment, the changes of body weight of nude mice were recorded, and the anti-tumor effect of the samples was dynamically investigated by measuring tumor diameter. On Day 31 post treatment, the nude mice were sacrificed, and the tumor blocks were removed surgically, weighed, and recorded.

[6] = 20 mg/kg-i.p. twice a week, 21 days

Structure (SMILES)	sensitivity / response of cells to positive controls (Tdp1-over CL187 cells)	inhibition at 0.5 µM (siRNA-Tdp1 CL187 cells; Homo sapiens, read-out: cell inhibition rate) [%]	sensitivity / efficacy of positive controls (siRNA-Tdp1 CL187 cells)	inhibitory effect on cell proliferation of positive controls (siRNA-Top1 CL187 cells)	Top1 enzyme activity in the nucleus (Top1 in CL187 cells [1])	inhibition of Top1 enzyme activity (SC DNA relaxation) (Top1; 30 min incubation, CPT at 50 uM)	concentration exhibiting the same inhibitory effect on Top1 enzyme activity (Top1; relaxation of supercoiled pHOT-1 DNA, 30 min) [µM]	concentration with the same inhibitory effect on intracellular Top1 enzyme activity (Top1 in CL187 cells [2]; cell extracts + SC DNA) [µM]	Top1 enzyme activity in mitochondria (Top1 in CL187 cells [2]; CPT at 50 μM)	effect on lung inflammation (HE sections) [3]	degree of tumor necrosis (HE) ([4]; 20 mg/kg-i.p.)	Tumor Inhibitory Rate [4, 6] [%]	Tumor Weight [4, 6] [g]	Ki67 labeling rate in tumor tissue ([4]; 20 mg/kg-i.p., vector control 46.53±3.86%) [%]	Tumor Weight ([5]; 20 mg/kg i.p. twice a week, Day 31) [g]	adverse reactions during the entire treatment process ([5]; subcutaneous CL187 xenograft nude mice, CPT-11 20 mg/kg, PTE 25-200 mg/kg i.p.)
CC[C@@]1(O)C(=O)OCc2c1cc1n(c2=O)Cc2cc3ccccc3nc2-1 [CPT, camptothecin, reference compound]	significantly reduced	~90	significantly increased	hardly exhibited inhibitory effect on cell proliferation	significantly inhibited	could inhibit Top1 enzyme activity	50	50	significantly inhibited	–	–	–	–	–	–	–
CCc1c2c(nc3ccc(OC(=O)N4CCC(N5CCCCC5)CC4)cc13)-c1cc3c(c(=O)n1C2)COC(=O)[C@]3(O)CC [CPT-11, irinotecan]	–	–	–	–	–	–	–	–	–	could aggravate the inflammatory response	+++ (+++ denotes the ratio between 1/2 and 3/4)	62.91 ± 11.78	0.81 ± 0.20	22.46 ± 6.78	1.18 ± 0.12	severe diarrhea, lassitude, and other adverse reactions
Cl.Cl.N=C(N)c1ccc(-c2ccc(-c3ccc(C(=N)N)cc3)o2)cc1 [FM, Furamidine dihydrochloride, reference compound]	good response	–	failed to exert its efficacy	significantly enhancing the inhibitory effect on the cells	–	–	–	–	–	–	–	–	–	–	–	–
